Experimental data published in publication PMC8776995 (Frontiers in Chemistry, 2022).
Values joined by “and” are separate entries in the source; they are usually repeats but may differ in a detail not shown here. Equal entries are not always repeated.

Legend:
[1] = tested on: CCND1, CCNA2, CCNB1, CDK2, CDK6 RNA in PC-9 cells; assay: qPCR assay for cell cycle-related gene analysis; assay type: cell-based, human; conditions: for RQ / RQ, CCNA / RQ, CCNB / RQ, CCND1 / RQ, CDK6 / RQ (CDK2): endogenous control b-Actin, reference sample NC; for CDK6 relative mRNA expression (fold of NC): normalised to beta-Actin, relative to NC = 1
Excerpt: To better understand the mechanisms underlying cell cycle arrest induced by e4 and e12 in NSCLC cells, we assessed the expression levels of a few genes involved in cell cycle regulation, including cyclin D1 (CCND1), cyclin A2 (CCNA2), cyclin B1 (CCNB1), cyclin-dependent kinase 2 (CDK2), and cyclin-dependent kinase 6 (CDK6) in PC-9 by qPCR. […] CCNA2 is known to bind and activate CDK2 and thus promotes the transition through G1/S and G2/M. CCNB1 and CCND1 are essential to mitosis and G1/S transition respectively. While G2/M arrest weas not detected, the changes in these gene expression profiles interpret the G1/S arrests in PC-9 cells treated with e4 and e12. PC-9 cells exposed to the compounds for various periods should be examined further.
Total RNA of cells was extracted and cDNA was synthesized. The primers for the target products were designed as in Table 3.

H460 cells = assay: Annexin V/PI flow cytometry for cell apoptosis, H460; assay type: cell-based, human; conditions: for Percentage of apoptosis, Average: average of three runs; for Q2+Q3 / Lymphocytes/Q2: FITC-A+ , PI-A+ Freq. of Parent / Lymphocytes/Q3: FITC-A+ , PI-A- Freq. of Parent / Percentage of apoptosis: single runs; for Q2+Q3: given as fraction; for Lymphocytes/Q2: FITC-A+ , PI-A+ Freq. of Parent / Lymphocytes/Q3: FITC-A+ , PI-A- Freq. of Parent / Percentage of apoptosis: time as in file name (24h, 48h or not given)
Description: To establish whether the antiproliferative efficacy is associated with apoptosis, PC-9 and H460 cells were treated with compound e4 or e12 of various concentrations (4, 8 and 12 μM) for 48 h, and then assessed with flow cytometry.
Cell-apoptosis analysis was carried out by flow cytometry using the Annexin V/PI apoptosis kit according to the manufacturer’s manual. Briefly, PC-9 or H460 (3 × 10^4–5 × 10^4/well) cells were seeded in 12-well plates for 24 h, and then treated with 0.1% DMSO (as control) or various concentrations of compound e4 or e12 for 48 h, respectively. Cells were harvested, washed with PBS, and then incubated with 100ul of 1X Annexin V binding buffer containing 1 μl PI and 1 μl FITC Annexin V for 15 min at RT in the dark. 200 µl of 1X binding buffer were added to each tube for flow cytometry analysis (BD LSRFortessa™ Flow Cytometer). The percentages of apoptotic cells were analyzed using FlowJo soft.

[2] = PC-9, 16 h, compared with DMSO control

SMILES: COCCOc1cc2ncnc(Nc3cccc(-c4cn(Cc5cc(Br)cc(Br)c5)nn4)c3)c2cc1OCCOC [e4, [6,7-Bis-(2-methoxy-ethoxy)-quinazolin-4-yl]-{3-[1-(3,5-dibromo-benzyl)-1H-[1,2,3]triazol-4-yl]-phenyl}-amine]
- RQ ([1]; CDK2 mRNA, 12uM): 1.173
- 2^ΔΔCт CDK6 ([1]; CDK6, 4uM, Repeat 1-3, relative to NC = 1): 0.8111 and 1.387 and 0.8685
- 2^ΔΔCт CDK6 ([1]; CDK6, 12uM, Repeat 1-3, relative to NC = 1): 1.051 and 1.348 and 1.109
- RQ ([1]; CDK6 mRNA, 4uM): 0.8685
- RQ ([1]; CDK6 mRNA, 8uM): 0.637
- RQ ([1]; CDK6 mRNA, 12uM): 1.109
- RNA expression of CCND1 ([1]; PC-9, 12 μM, 16 h): negatively regulated
- RNA level of CCNA2 [1, 2]: significantly decreased
- RNA level of CCNB1 [1, 2]: significantly decreased
- RQ, CCNA ([1]; qPCR SYBR Green, CCNA mRNA, 4uM): 0.8165
- RQ, CCNA ([1]; qPCR SYBR Green, CCNA mRNA, 8uM): 0.778
- RQ, CCNA ([1]; qPCR SYBR Green, CCNA mRNA, 12uM): 0.5446
- RQ, CCNB ([1]; qPCR SYBR Green, CCNB mRNA, 4uM): 1.076
- RQ, CCNB ([1]; qPCR SYBR Green, CCNB mRNA, 8uM): 1.137
- RQ, CCNB ([1]; qPCR SYBR Green, CCNB mRNA, 12uM): 0.9859
- RQ, CCND1 ([1]; qPCR SYBR Green, CCND1 mRNA, 4uM): 1.076
- RQ, CCND1 ([1]; qPCR SYBR Green, CCND1 mRNA, 8uM): 0.7718
- RQ, CCND1 ([1]; qPCR SYBR Green, CCND1 mRNA, 12uM): 0.7441
- RQ, CDK6 ([1]; qPCR SYBR Green, CDK6 mRNA, 4uM): 1.387
- RQ, CDK6 ([1]; qPCR SYBR Green, CDK6 mRNA, 8uM): 1.7457
- RQ, CDK6 ([1]; qPCR SYBR Green, CDK6 mRNA, 12uM): 1.348
- CDK6 relative mRNA expression (fold of NC, normalised to beta-Actin) ([1]; qPCR, SYBR Green, 8uM): 1.746
- CDK6 relative mRNA expression (fold of NC) ([1]; qPCR, SYBR Green, 8uM): 0.9943
- CDK6 relative mRNA expression (fold of NC) ([1]; qPCR, SYBR Green, 12uM): 1.109
- 2^ΔΔCт CDK6 ([1]; recalculated summary 20201020-1, normalized to WT (NC), CDK6, 4uM): 1.387
- 2^ΔΔCт CDK6 ([1]; recalculated summary 20201020-1, normalized to WT (NC), CDK6, 8uM): 1.746
- RQ, CCNA ([1]; target CCNA, 4uM): 0.7613
- RQ, CCNA ([1]; target CCNA, 8uM): 0.7109
- RQ, CCNA ([1]; target CCNA, 12uM): 0.5857
- RQ, CCNB ([1]; target CCNB, 4uM): 0.8081
- RQ, CCNB ([1]; target CCNB, 8uM): 0.7848
- RQ, CCNB ([1]; target CCNB, 12uM): 0.736
- RQ, CCND1 ([1]; target CCND1, 4uM): 0.8337
- RQ, CCND1 ([1]; target CCND1, 8uM): 0.7172
- RQ, CCND1 ([1]; target CCND1, 12uM): 0.6074
- RQ (CDK2) ([1]; target CDK2, 8uM): 1.1688
- RQ (CDK2) ([1]; target CDK2, 12uM): 0.9257
- RQ, CDK6 ([1]; target CDK6, 4uM): 0.8111
- RQ, CDK6 ([1]; target CDK6, 8uM): 0.824
- RQ, CDK6 ([1]; target CDK6, 12uM): 1.051
- Percentage of apoptosis, Average (H460 cells; H460, 4uM): 9.783%
- Q2+Q3 (H460 cells; H460, 4uM): 0.1032 and 0.0852 and 0.1051
- Lymphocytes/Q2: FITC-A+ , PI-A+ Freq. of Parent (H460 cells; H460, 4uM): 5.85% and 4.70% and 6.80%
- Lymphocytes/Q3: FITC-A+ , PI-A- Freq. of Parent (H460 cells; H460, 4uM): 4.47% and 3.82% and 3.71%
- Percentage of apoptosis (H460 cells; H460, 4uM): 10.32% and 8.52% and 10.51%
- Percentage of apoptosis, Average (H460 cells; H460, 8uM): 47.9767%
- Q2+Q3 (H460 cells; H460, 8uM): 0.4733 and 0.459 and 0.507
- Lymphocytes/Q2: FITC-A+ , PI-A+ Freq. of Parent (H460 cells; H460, 8uM): 41.3% and 35.4% and 44.0%
- Lymphocytes/Q3: FITC-A+ , PI-A- Freq. of Parent (H460 cells; H460, 8uM): 6.03% and 10.5% and 6.70%
- Percentage of apoptosis (H460 cells; H460, 8uM): 47.33% and 45.9% and 50.7%
- Percentage of apoptosis, Average (H460 cells; H460, 12uM): 72.3733%
- Q2+Q3 (H460 cells; H460, 12uM): 0.7923 and 0.7087 and 0.6702
- Lymphocytes/Q2: FITC-A+ , PI-A+ Freq. of Parent (H460 cells; H460, 12uM): 74.3% and 67.3% and 60.8%
- Lymphocytes/Q3: FITC-A+ , PI-A- Freq. of Parent (H460 cells; H460, 12uM): 4.93% and 3.57% and 6.22%
- Percentage of apoptosis (H460 cells; H460, 12uM): 79.23% and 70.87% and 67.02%
- cell apoptosis (flow cytometry) (H460 cells; H460, 4, 8 and 12 μM, 48 h): significant cell apoptosis
